Test results taken from PMC10518717, “High-Throughput Screening and Proteomic Characterization of Compounds Targeting Myeloid-Derived Suppressor Cells” (Molecular & Cellular Proteomics : MCP, 2023).

Molecular target: T1, NUP-MDSC cell lysate (Mus musculus, UniProt O70589)
T1 construct: endogenous in cells; host or cells: mouse NUP-MDSC (lysate)
T1 sequence (O70589 1-926): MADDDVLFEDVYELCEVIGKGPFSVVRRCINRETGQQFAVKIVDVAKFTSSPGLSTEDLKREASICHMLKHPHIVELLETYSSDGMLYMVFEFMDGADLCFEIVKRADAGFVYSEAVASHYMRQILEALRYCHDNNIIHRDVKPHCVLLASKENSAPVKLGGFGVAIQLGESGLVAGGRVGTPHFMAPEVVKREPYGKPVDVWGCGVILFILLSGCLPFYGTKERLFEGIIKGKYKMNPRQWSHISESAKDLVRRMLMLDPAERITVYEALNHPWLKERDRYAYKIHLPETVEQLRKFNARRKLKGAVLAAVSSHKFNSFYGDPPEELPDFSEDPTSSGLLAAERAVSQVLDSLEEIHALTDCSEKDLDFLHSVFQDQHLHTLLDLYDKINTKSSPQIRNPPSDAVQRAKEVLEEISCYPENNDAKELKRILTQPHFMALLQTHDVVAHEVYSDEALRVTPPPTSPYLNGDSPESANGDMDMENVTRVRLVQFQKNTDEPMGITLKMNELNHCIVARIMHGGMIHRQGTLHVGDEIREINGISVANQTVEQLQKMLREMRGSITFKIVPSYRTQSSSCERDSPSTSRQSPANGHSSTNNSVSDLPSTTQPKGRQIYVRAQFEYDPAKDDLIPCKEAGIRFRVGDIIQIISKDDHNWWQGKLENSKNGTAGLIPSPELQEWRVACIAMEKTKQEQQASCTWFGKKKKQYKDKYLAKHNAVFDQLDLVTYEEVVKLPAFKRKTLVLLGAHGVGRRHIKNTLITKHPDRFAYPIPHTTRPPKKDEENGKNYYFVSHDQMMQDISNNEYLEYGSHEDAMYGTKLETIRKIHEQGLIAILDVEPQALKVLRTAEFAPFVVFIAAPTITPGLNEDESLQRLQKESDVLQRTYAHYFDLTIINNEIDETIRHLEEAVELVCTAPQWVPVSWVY
Test: Solvent-induced protein precipitation profiling, proteome-wide
Assay type: binding
Details: protein Cask; soluble fraction; 26 uM
Experimental: NUP-MDSCs were differentiated as described above, washed twice with PBS, resuspended in lysis buffer (PBS, 0.4% IGEPAL CA-630, 1× Halt Protease-Inhibitor Cocktail (Thermo Fisher Scientific)), and subjected to three freeze-thaw cycles. The lysate was cleared by centrifugation for 30 min at 18,000g and 4 °C. The soluble fraction was diluted to 4 mg/ml and allowed to warm up to room temperature. Equal volumes of lysate were treated in triplicates with 100 x compound stock solutions (in DMSO) or DMSO for 15 min at room temperature (final concentrations: cmpd 2: 7.8 μM (3xEC50) and 26 μM (10xEC50), cmpd 3: 10 μM and 26 μM). Similar to a previous study ([46]), each sample was divided into eight aliquots to be denatured using different concentrations (8%, 10%, 12%, 14%, 16%, 18%, 20%, 22%) of acetone:ethanol:acetic acid (50:50:0.1) in water for 20 min at 37 °C with vigorous shaking. Aggregated proteins were separated by centrifugation for 45 min at 4 °C and 3900g. Next, equal amounts of the soluble fraction were pooled for subsequent proteomic analysis.
Methanol was added to 100 μg of the pooled supernatants to a final concentration of 70% and further processed according to the R2P1 protocol ([47]), with tryptic digestion performed in 50 mM Hepes (pH 8.5). Elution fractions were combined and dried by vacuum centrifugation. Dried samples were resuspended in deionized water, and TMT labeling was performed according to Zecha et al. ([35]). All 15 samples (5 treatment conditions in triplicates) were labeled with one TMTpro plex. Next, equal amounts were pooled and desalted by C18 solid-phase extraction cartridges (Sep-Pak Vac 1 cc C18 Cartridges, Waters Corp). Desalted peptides were chromatographically separated via basic reversed phase chromatography as previously described ([36]) into 24 fractions, dried down, and stored at −20 °C until further analysis.
Peptides were analyzed via LC-MS/MS on a Vanquish Neo UHPLC coupled to an Orbitrap Eclipse Tribrid mass spectrometer (Thermo Fisher Scientific). […] The mass spectrometer was operated in data-dependent mode and positive ionization mode. Samples were measured, employing a MS3 method with real-time search. […] Iontrap-MS2 spectra for peptide identification were acquired using HCD fragmentation with 35% NCE, an isolation window of 0.7 m/z, an AGC target value of 5e4 charges, and a maxIT of 35 ms. To obtain quantitative information on TMT reporter ions, each peptide precursor was fragmented again as for MS2 analysis followed by synchronous selection of the up to 10 most intense peptide fragments in the iontrap ([37]) and further fragmentation via HCD using an NCE of 55%. For the MS3 scan, real-time search was enabled to only trigger a MS3 scan for peptides that are TMT-labeled and can be identified (searched against a mouse database, same as used for maxquant processing). The MS3 scan was recorded in the OT at 30,000 resolution (scan range 110–500 m/z, isolation window of 0.7 m/z, AGC of 2e4 charges, maxIT of 120 ms). The cycle time was set to 3 s, and the dynamic exclusion lasted for 60 s.
Raw files were searched with Maxquant (v. 2.0.3.0) against the mouse reference proteome (UP000000589, canonical, download 10/2019, 55,029 entries) with standard settings for reporter ion MS3 unless described otherwise ([39]). Isotope impurities of the TMT lot were specified to allow MaxQuant the automated correction of TMT intensities. […] Trypsin/P was specified as the proteolytic enzyme with up to two missed cleavage sites allowed. […]

- log2 FC cmpd2_26uM/cmpd3_26uM: 0.23
SMILES: CCOC(=O)c1nnn(-c2nn3nnnc3c3ccccc23)c1C [compound 2]
